# Laboratory results: article PMC3047451 (Journal of medicinal chemistry, 2011)
# Entries after “also recorded” stand apart in the source; their conditions may differ. Where two headings read alike, the source gives them in different places.
# Key:
# [1] = target: T1, cloned human μ-opioid receptor (Homo sapiens, UniProt P35372); settings: for μ-antagonist potency compared with naloxone or naltrexone (in words): [35S]GTP-γ-S assay; for Ke: shift of DAMGO dose-response curve by test agent, hMOR-CHO membranes, ± SD; for fold more potent than naloxone as μ-antagonist: [35S]GTP-γ-S functional binding assay
# δ-opioid receptor = δ-opioid receptor (Homo sapiens, UniProt P41143); test: biochemical; format: binding
# κ-opioid receptor = κ-opioid receptor (Homo sapiens, UniProt P41145); test: biochemical; format: binding
# μ-opioid receptor [2] = target: T2, μ-opioid receptor (Homo sapiens, UniProt P35372); settings: for Ki: read-out: Ki, μ
# μ-opioid receptor [3] = target: T2, μ-opioid receptor; test: biochemical
# [4] = target: T1, cloned human μ-opioid receptor; test: biochemical
# [5] = target: T1, cloned human μ-opioid receptor; settings: full inverse agonist curve; cited from earlier work
# [6] = target: T1, cloned human μ-opioid receptor; settings: 10 μM, non-dependent hMOR cells
# [7] = read-out: Ki, δ, 125I-IOXY, hDOR-CHO, n = 3 (± SD)
# δ-opioid receptor, sequence (P41143 whole entry): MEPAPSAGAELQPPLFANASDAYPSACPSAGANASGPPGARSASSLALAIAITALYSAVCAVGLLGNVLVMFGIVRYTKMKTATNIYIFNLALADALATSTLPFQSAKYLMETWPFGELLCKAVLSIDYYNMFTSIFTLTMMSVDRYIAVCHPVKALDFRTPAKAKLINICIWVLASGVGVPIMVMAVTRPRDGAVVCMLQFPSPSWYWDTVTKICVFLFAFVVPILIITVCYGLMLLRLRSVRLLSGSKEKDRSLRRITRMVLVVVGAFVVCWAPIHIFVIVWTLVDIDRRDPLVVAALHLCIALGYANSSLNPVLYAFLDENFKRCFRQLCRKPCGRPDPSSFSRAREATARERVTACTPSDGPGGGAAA
# κ-opioid receptor, sequence (P41145 whole entry): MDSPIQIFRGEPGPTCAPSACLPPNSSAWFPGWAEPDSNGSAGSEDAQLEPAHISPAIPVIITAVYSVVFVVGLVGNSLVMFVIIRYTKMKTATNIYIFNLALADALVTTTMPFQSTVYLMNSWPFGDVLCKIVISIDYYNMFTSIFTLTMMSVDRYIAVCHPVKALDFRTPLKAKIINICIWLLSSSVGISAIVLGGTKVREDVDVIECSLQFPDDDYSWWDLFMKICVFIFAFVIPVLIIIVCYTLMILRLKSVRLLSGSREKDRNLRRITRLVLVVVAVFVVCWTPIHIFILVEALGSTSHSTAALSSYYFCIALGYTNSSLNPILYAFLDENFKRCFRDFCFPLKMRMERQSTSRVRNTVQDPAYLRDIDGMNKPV
# T1 sequence (P35372 whole entry): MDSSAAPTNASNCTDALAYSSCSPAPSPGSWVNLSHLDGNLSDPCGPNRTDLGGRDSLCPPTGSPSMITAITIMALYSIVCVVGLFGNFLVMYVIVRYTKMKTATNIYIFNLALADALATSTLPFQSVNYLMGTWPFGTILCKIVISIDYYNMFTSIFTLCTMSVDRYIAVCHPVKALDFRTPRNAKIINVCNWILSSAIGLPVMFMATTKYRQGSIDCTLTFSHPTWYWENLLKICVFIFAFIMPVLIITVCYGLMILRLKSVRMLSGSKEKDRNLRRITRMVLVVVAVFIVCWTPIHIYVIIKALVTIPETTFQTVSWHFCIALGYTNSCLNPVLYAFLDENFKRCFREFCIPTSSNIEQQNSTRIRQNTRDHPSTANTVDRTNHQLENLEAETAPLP
# T2 sequence (P35372 whole entry): as above
SMILES,μ-antagonist potency compared with naloxone or naltrexone (in words) [1],Ke [1],Ki (δ-opioid receptor; [7]),"Ki (κ-opioid receptor; read-out: Ki, κ)",Ki (μ-opioid receptor [2]),Ki (μ-opioid receptor [3]),Ki (δ-opioid receptor),Kb [4],Ki (κ-opioid receptor),inverse agonist activity at non-dependent μ-opioid receptors [5],inverse agonist activity (effect on [35S]GTP-γ-S binding) [6],fold difference in μ Ki between the cis stereoisomers (μ-opioid receptor [2]),fold more potent than naloxone as μ-antagonist [1]
"Oc1cccc([C@@]23CCC[C@@H](C2)N(C[C@H]2C[C@@H]2c2ccccc2)CC3)c1 [(+)−30, 3-((1S,5R)-2-(((1’S,2’S)-2-Phenylcyclopropyl)methyl)-2-azabicyclo[3.3.1]nonan-5-yl)phenol]",equipotent with naloxone; also recorded: about as potent as naloxone,2.2 ± 0.4 nM,183 ± 7 nM,323 ± 15 nM,16 ± 1 nM,,,,,,,,
"Oc1cccc([C@]23CCC[C@H](C2)N(C[C@H]2C[C@@H]2c2ccccc2)CC3)c1 [(+)−29, 3-((1R,5S)-2-(((1’S,2’S)-2-Phenylcyclopropyl)methyl)-2-azabicyclo[3.3.1]nonan-5-yl)phenol]",,0.17 ± 0.02 nM,165 ± 7 nM,72 ± 4 nM,3 ± 0.26 nM,,,,,,,,
"Oc1cccc([C@@]23CCC[C@@H](C2)N(C[C@H]2C[C@H]2c2ccccc2)CC3)c1 [(+)−32, 3-((1S,5R)-2-(((1’S,2’R)-2-Phenylcyclopropyl)methyl)-2-azabicyclo[3.3.1]nonan-5-yl)phenol]",,18 ± 6 nM,547 ± 23 nM,174 ± 12 nM,76 ± 0.3 nM,,,,,,,,
"Oc1cccc([C@@]23CCC[C@@H](C2)N(C/C=C\c2ccccc2)CC3)c1 [(+)−9, 3-((1S,5R)-2-((Z)-3-phenylallyl)-2-azabicyclo[3.3.1]nonan-5-yl)phenol]",about as potent as naloxone,,,,,26 ± 2 nM,454 ± 25 nM,3.1 ± 0.7 nM,123 ± 4 nM,inverse agonist,,,
"Oc1cccc([C@]23CCC[C@H](C2)N(C/C=C\c2ccccc2)CC3)c1 [(−)−9, 3-((1R,5S)-2-((Z)-3-phenylallyl)-2-azabicyclo[3.3.1]nonan-5-yl)phenol]",,,,,,14 ± 0.7 nM,359 ± 18 nM,7.7 ± 1.6 nM,367 ± 18 nM,,,,
"Oc1cccc([C@]23CCC[C@H](C2)N(C[C@@H]2C[C@@H]2c2ccccc2)CC3)c1 [(−)−32, 3-((1R,5S)-2-(((1’R,2’S)-2-Phenylcyclopropyl)methyl)-2-azabicyclo[3.3.1]nonan-5-yl)phenol]",four fold less active as opioid antagonists,8.2 ± 1.8 nM,196 ± 6 nM,322 ± 22 nM,11 ± 0.9 nM,,,,,,did not act as inverse agonists,,
"Oc1cccc([C@]23CCC[C@H](C2)N(C[C@H]2C[C@H]2c2ccccc2)CC3)c1 [(+)−31, 3-((1R,5S)-2-(((1’S,2’R)-2-Phenylcyclopropyl)methyl)-2-azabicyclo[3.3.1]nonan-5-yl)phenol]",,33 ± 7 nM,1980 ± 54 nM,475 ± 33 nM,459 ± 14 nM,,,,,,,~42 fold,
"Oc1cccc([C@]23CCC[C@H](C2)N(C[C@@H]2C[C@H]2c2ccccc2)CC3)c1 [(−)−30, 3-((1R,5S)-2-(((1’R,2’R)-2-Phenylcyclopropyl)methyl)-2-azabicyclo[3.3.1]nonan-5-yl)phenol]",about equipotent with naltrexone,0.31 ± 0.06 nM,200 ± 10 nM,210 ± 13 nM,4 ± 0.27 nM,,,,,,,,7 fold
"Oc1cccc([C@]23CCC[C@H](C2)N(CC=Cc2ccccc2)CC3)c1 [(−)−6, 3-((1R,5S)-2-Cinnamyl-2-azabicyclo[3.3.1]nonan-5-yl)phenol]",four fold less active as opioid antagonists,,,,,6 ± 0.39 nM,152 ± 5 nM,6.6 ± 0.7 nM,225 ± 7 nM,,little or no activity as an inverse agonist; also recorded: did not act as inverse agonists,,
"Oc1cccc([C@@]23CCC[C@@H](C2)N(C[C@@H]2C[C@H]2c2ccccc2)CC3)c1 [(−)−29, 3-((1S,5R)-2-(((1’R,2’R)-2-Phenylcyclopropyl)methyl)-2-azabicyclo[3.3.1]nonan-5-yl)phenol]",,9.4 ± 1.5 nM,800 ± 29 nM,390 ± 16 nM,47 ± 3 nM,,,,,,,,
"Oc1cccc([C@@]23CCC[C@@H](C2)N(CC=Cc2ccccc2)CC3)c1 [(+)−6, 3-((1S,5R)-2-Cinnamyl-2-azabicyclo[3.3.1]nonan-5-yl)phenol]",,,,,,2 ± 0.13 nM,138 ± 5 nM,0.58 ± 0.07 nM,125 ± 3 nM,,,,4 fold
"Oc1cccc([C@@]23CCC[C@@H](C2)N(C[C@@H]2C[C@@H]2c2ccccc2)CC3)c1 [(−)−31, 3-((1S,5R)-2-(((1’R,2’S)-2-Phenylcyclopropyl)methyl)-2-azabicyclo[3.3.1]nonan-5-yl)phenol]",,8.6 ± 1.9 nM,610 ± 25 nM,153 ± 7 nM,265 ± 17 nM,,,,,,,,
